Measurements: patent publication US8604059B2, “Thioxanthene derivatives for the treatment of infectious diseases” (BKG Pharma APS, priority 2009, dated 2013)
Where “and” joins values, the source holds several entries; their conditions need not be identical. Equal values may be shown once.

Assays:
[1] = system: Enterococcus faecalis ENT 28 (VRE); test: Mouse peritonitis model, neutropenic NMRI mice, enhancing effect with linezolid; assay type: in vivo
Procedure: A multiresistant clinical isolate of Enterococcus faecalis ENT 28 (VRE) from human urine was used.
Female NMRI mice (age, approximately 6 to 8 weeks; weight, 30±2 g) were used for the mouse […] peritonitis model (as described below).
In order to detect any synergistic effect, infected mice were treated with sub-therapeutic doses of each test compound alone or a mixture of the two compounds.
Bacterial suspensions were prepared from fresh overnight cultures (made from frozen stock cultures) on 5% blood agar plates as described above. The inoculum for the mouse peritonitis model was prepared immediately before use and was adjusted at 540 nm of giving a density of approximately 10^7 CFU/ml. The size of the inoculum was determined by viability counting on 5% blood agar.
Neutropenia was introduced by pretreating the mice with cyclophosphamide (6 mg daily for three days). […] Antibiotic therapy was initiated just after inoculation. Linezolid and compound 3 was administered subcutaneously in the neck region in a volume of 0.5 ml per dose. 3 mice were in each treatment group. Inoculated untreated control mice were included in all trials. (Method reference: Erlandsdottir et al; Antimicrob Agents Chemother. 2001 April; 45(4):1078-85)
The effects of the various treatment regimens were determined during 5 h of treatment by evaluation of bacterial counts in the peritoneal fluid. After the mice were killed, peritoneal washes were performed by injecting 2 ml of sterile saline intraperitoneally, followed by massage of the abdomen and then opening of the peritoneum to collect the fluid. Peritoneal fluids were immediately diluted 10-fold in saline, from which 20 μl was plated onto 5% blood agar plates in spots, with subsequent counting of colonies after incubation overnight at 35° C. The lowest detection levels for bacterial counts in blood and peritoneal fluid were 50 and 250 CFU/ml, respectively.

[2] = system: Multiresistant clinical isolates E. coli; test: Maximal reversal of resistance and synergistic effect (Table 4c); assay type: cell-based; details: for Fold enhanced, compound 1 1.0 ug/ml: enhancement of antibiotic by compound 1 at 1.0 ug/ml; for Fold enhanced, compound 2 2.0 ug/ml: enhancement of antibiotic by compound 2 at 2.0 ug/ml; for Fold enhanced, compound 3 0.6 ug/ml: enhancement of antibiotic by compound 3 at 0.6 ug/ml; for MIC plus compound 1 1.0 ug/ml: MIC of antibiotic in presence of compound 1 at 1.0 ug/ml; for MIC plus compound 2 2.0 ug/ml: MIC of antibiotic in presence of compound 2 at 2.0 ug/ml; for MIC plus compound 3 0.6 ug/ml: MIC of antibiotic in presence of compound 3 at 0.6 ug/ml
Procedure: (§1) The maximal obtained reversal of resistance and synergistic effect was tested as previously described.
Strains: Multiresistant clinical isolates E. coli, Ten strains in each group.

[3] = system: Multiresistant clinical isolates of S. aureus and S. epidermidis; test: Maximal reversal of resistance and synergistic effect (Table 4b); assay type: cell-based; details: for MIC plus compound 1 0.60 ug/ml: MIC of antibiotic in presence of compound 1 at 0.60 ug/ml; for MIC plus compound 1 0.60 ug/ml / MIC compound 2 0.98 ug/ml / MIC plus compound 3 0.30 ug/ml / MIC plus compound 4 0.75 ug/ml / MIC alone: median; for MIC compound 2 0.98 ug/ml: MIC of antibiotic in presence of compound 2 at 0.98 ug/ml; for MIC plus compound 3 0.30 ug/ml: MIC of antibiotic in presence of compound 3 at 0.30 ug/ml; for MIC plus compound 4 0.75 ug/ml: MIC of antibiotic in presence of compound 4 at 0.75 ug/ml; for MIC alone: antibiotic alone, ten strains in each group; for Fold enhanced, compound 1 0.60 ug/ml: enhancement of antibiotic by compound 1 at 0.60 ug/ml; for Fold enhanced, compound 2 0.98 ug/ml: enhancement of antibiotic by compound 2 at 0.98 ug/ml; for Fold enhanced, compound 3 0.30 ug/ml: enhancement of antibiotic by compound 3 at 0.30 ug/ml; for Fold enhanced, compound 4 0.75 ug/ml: enhancement of antibiotic by compound 4 at 0.75 ug/ml
Procedure: as §1
Strains: Multiresistant clinical isolates of S. aureus and S. epidermidis, Ten strains in each group.

[4] = treatment 0 and 2 hours, sampling 5 hours, sub-therapeutic doses as in Table 9, individual mice
[5] = antibiotic alone, median, ten strains

Molecule | Fold enhanced, compound 1 1.0 ug/ml [2] | Fold enhanced, compound 2 2.0 ug/ml [2] | Fold enhanced, compound 3 0.6 ug/ml [2] | MIC plus compound 1 1.0 ug/ml ([2]; median) | MIC plus compound 2 2.0 ug/ml ([2]; median) | MIC plus compound 3 0.6 ug/ml ([2]; median) [µg/mL] | MIC alone [2, 5] [µg/mL] | MIC plus compound 1 0.60 ug/ml [3] [µg/mL] | MIC compound 2 0.98 ug/ml [3] [µg/mL] | MIC plus compound 3 0.30 ug/ml [3] [µg/mL] | MIC plus compound 4 0.75 ug/ml [3] [µg/mL] | MIC alone [3] [µg/mL] | Fold enhanced, compound 1 0.60 ug/ml [3] | Fold enhanced, compound 2 0.98 ug/ml [3] | Fold enhanced, compound 3 0.30 ug/ml [3] | Fold enhanced, compound 4 0.75 ug/ml [3] | also measured
CC(=O)NC[C@H]1CN(c2ccc(N3CCOCC3)c(F)c2)C(=O)O1 [Linezolid] | – | – | – | – | – | – | – | – | – | – | – | – | – | – | – | – | Effect on the infection / bacteria in mouse peritoneum ([1]; sub-therapeutic dose alone): no effect on the infection; score at sampling ([1]; treatment 0 and 2 hours, sampling 5 hours, Linezolid 1 mg/ml 0.5 ml, Compound 3 0.1 mg/ml 0.5, combination Linezolid 2 mg/ml (0.25 ml) and compound 3 0.2 mg/ml (0.25 ml), individual mice): 2 and 3 (2×); Cfu/ml peritoneum [1, 4]: 2.08E+09 Cfu/ml and 2.20E+09 Cfu/ml and 2.40E+09 Cfu/ml; log (cfu/ml) peritoneum [1, 4]: 9.32 log (cfu/ml) and 9.34 log (cfu/ml) and 9.38 log (cfu/ml)
CCN1CCN(C(=O)N[C@@H](C(=O)N[C@@H]2C(=O)N3[C@@H]2SC(C)(C)[C@@H]3C(=O)O)c2ccccc2)C(=O)C1=O [Piperacillin] | 4 (4) | 4 (4) | 8 | – | – | – | – | – | – | – | – | – | – | – | – | – | MIC ([2]; Escherichia coli, antibiotic alone, median, ten strains): 16 µg/mL
CN(C)[C@@H]1C(=O)C(C(N)=O)=C(O)[C@@]2(O)C(=O)C3=C(O)c4c(O)cccc4[C@@](C)(O)[C@H]3C[C@@H]12 [Tetracyclin] | 4 (4) | 4 (4) | 8 | 4 (4) μg/ml | 4 (4) μg/ml | 2 | 16 | 4 | 8 | 2 | 8 | 16 | 2 | 2 | 4 | 2 | –
Dicloxacillin & Methicillin | – | – | – | – | – | – | – | 4 | 4 | 2 | 4 | 64 | 16 | 16 | 32 | 16 | –
Gentamicin | 2 | 2 | 4 | 4 µg/mL | 4 µg/mL | 2 | 8 | 4 | 4 | 2 | 4 | 8 | 2 | 2 | 4 | 2 | –
